Laboratory results as given in ChEMBL document CHEMBL1821584, “Docking and 3D-QSAR (quantitative structure activity relationship) studies of flavones, the potent inhibitors of p-glycoprotein targeting the nucleotide binding domain” (Eur J Med Chem, 2011).

Target: ATP-dependent translocase ABCB1 (Homo sapiens, UniProt P08183)
Assay: Binding affinity to ABCB1 nucleotide binding domain 2

Sequence of ATP-dependent translocase ABCB1 (P08183 whole entry, the tested form may be a part): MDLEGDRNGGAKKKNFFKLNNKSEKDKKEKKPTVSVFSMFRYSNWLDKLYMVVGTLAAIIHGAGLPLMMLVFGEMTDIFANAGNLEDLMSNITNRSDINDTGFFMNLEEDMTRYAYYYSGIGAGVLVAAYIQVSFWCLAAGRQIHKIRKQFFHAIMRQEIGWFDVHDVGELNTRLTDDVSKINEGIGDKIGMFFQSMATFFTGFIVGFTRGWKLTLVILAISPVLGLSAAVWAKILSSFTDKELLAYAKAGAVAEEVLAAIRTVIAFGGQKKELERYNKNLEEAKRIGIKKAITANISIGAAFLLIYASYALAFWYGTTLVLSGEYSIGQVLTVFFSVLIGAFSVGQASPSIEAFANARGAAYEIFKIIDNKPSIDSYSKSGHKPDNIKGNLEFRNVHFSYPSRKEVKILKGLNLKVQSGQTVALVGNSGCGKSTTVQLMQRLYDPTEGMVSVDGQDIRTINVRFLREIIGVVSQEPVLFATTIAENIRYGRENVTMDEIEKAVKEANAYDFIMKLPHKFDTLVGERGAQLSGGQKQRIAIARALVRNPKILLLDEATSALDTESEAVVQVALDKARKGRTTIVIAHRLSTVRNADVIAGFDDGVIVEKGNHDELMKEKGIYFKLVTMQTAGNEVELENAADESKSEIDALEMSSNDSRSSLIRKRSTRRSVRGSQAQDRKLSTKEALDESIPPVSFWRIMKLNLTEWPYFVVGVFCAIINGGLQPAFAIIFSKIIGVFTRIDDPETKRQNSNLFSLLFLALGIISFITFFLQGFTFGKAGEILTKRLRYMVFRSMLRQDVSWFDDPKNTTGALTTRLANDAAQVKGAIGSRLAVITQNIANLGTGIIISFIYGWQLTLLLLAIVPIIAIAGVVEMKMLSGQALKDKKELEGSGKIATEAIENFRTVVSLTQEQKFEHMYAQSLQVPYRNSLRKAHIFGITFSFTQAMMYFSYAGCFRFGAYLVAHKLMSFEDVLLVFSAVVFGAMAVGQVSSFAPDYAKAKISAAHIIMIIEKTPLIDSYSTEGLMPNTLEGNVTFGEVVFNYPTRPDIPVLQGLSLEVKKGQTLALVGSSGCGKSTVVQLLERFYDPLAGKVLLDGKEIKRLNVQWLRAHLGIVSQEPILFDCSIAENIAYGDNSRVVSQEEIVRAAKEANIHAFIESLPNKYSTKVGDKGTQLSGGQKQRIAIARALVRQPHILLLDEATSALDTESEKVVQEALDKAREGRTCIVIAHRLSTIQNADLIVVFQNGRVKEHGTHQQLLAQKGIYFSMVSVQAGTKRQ

Row | Compound | Kd [µM]
1 | Cc1c(O)cc2oc(-c3ccccc3)cc(=O)c2c1O | 3.09
2 | CC(C)c1c(O)cc2oc(-c3ccccc3)cc(=O)c2c1O | 0.209
3 | CCCCCCCCc1ccc(-c2oc3cc(O)cc(O)c3c(=O)c2O)cc1 | 0.0575
4 | CC(C)Oc1cc(O)c2c(=O)cc(-c3ccccc3)oc2c1 | 1
5 | CC(C)Oc1c(C(C)C)c(O)c2c(=O)cc(-c3ccccc3)oc2c1C(C)C | 0.0331
6 | O=c1cc(-c2ccc(F)c(F)c2)oc2cc(O)cc(O)c12 | 6.31
7 | C=CC(C)(C)c1c(OC)cc(O)c2c(=O)c(OC)c(-c3ccccc3)oc12 | 0.151
8 | CC(C)=Cc1c(O)cc2oc(-c3ccccc3)c(O)c(=O)c2c1O | 0.209
9 | CC(C)=Cc1c(O)cc(O)c2c(=O)c(O)c(-c3ccccc3)oc12 | 0.219
10 | COc1c(-c2ccccc2)oc2cc(O)cc(O)c2c1=O | 8.91
11 | CC(C)=Cc1c(O)cc(O)c2c(=O)cc(-c3ccccc3)oc12 | 0.282
12 | CC(C)=CCC/C(C)=C/c1c(O)cc2oc(-c3ccccc3)cc(=O)c2c1O | 0.0447
13 | CC(C)=CCC/C(C)=C/c1c(O)cc(O)c2c(=O)cc(-c3ccccc3)oc12 | 0.0251
14 | COc1cc2oc(-c3ccccc3)cc(=O)c2c(O)c1C | 1.29
15 | O=c1cc(-c2ccc(O)cc2)oc2cc(O)cc(O)c12 [APIGENIN] | 10
16 | O=c1cc(-c2ccccc2)oc2ccccc12 [FLAVONE] | 33.9
17 | O=c1c(O)c(-c2ccccc2)oc2cc(O)cc(O)c12 [GALANGIN] | 5.89
18 | O=c1c(O)c(-c2ccc(O)cc2)oc2cc(O)cc(O)c12 [KAEMPFEROL] | 6.76
19 | COc1cc(O)c2c(=O)cc(-c3ccccc3)oc2c1 [TECHTOCHRYSIN] | 6.31

More lines, in order of falling Kd, values ahead:

Row | Kd [µM] | Compound
20 | 34.7 | O=c1cc(-c2ccccc2)oc2cc(O)ccc12 [7-HYDROXYFLAVONE]
21 | 26.3 | O=c1c(-c2ccc(O)cc2)coc2cc(O)cc(O)c12 [GENISTEIN]
22 | 10 | O=c1c(O)c(-c2ccccc2)oc2ccccc12 [FLAVONOL]
23 | 8.91 | O=c1cc(-c2ccccc2)oc2cc(O)cc(O)c12 [CHRYSIN]
24 | 6.76 | O=c1c(O)c(-c2ccc(F)cc2)oc2cc(O)cc(O)c12
25 | 4.47 | COc1ccc(-c2oc3cc(O)cc(O)c3c(=O)c2O)cc1 [KAEMPFERIDE]
26 | 3.98 | O=c1c(O)c(-c2ccc(Cl)cc2Cl)oc2cc(O)cc(O)c12
27 | 2.19 | O=c1cc(-c2ccc(I)cc2)oc2cc(O)cc(O)c12
28 | 2 | O=c1c(O)c(C(c2ccccc2)c2ccccc2)oc2cc(O)cc(O)c12
29 | 1.1 | O=c1c(O)c(-c2ccc(I)cc2)oc2cc(O)cc(O)c12
30 | 1 | O=c1cc(-c2ccccc2)oc2c(Cc3ccccc3)c(O)cc(O)c12
31 | 0.708 | C=CC(C)(C)c1c(O)cc(O)c2c(=O)cc(-c3ccc(O)cc3)oc12
32 | 0.447 | C=CC(C)(C)c1c(O)cc(O)c2c(=O)c(O)c(-c3ccccc3)oc12
33 | 0.339 | O=c1cc(-c2ccccc2)oc2cc(O)c(Cc3ccccc3)c(O)c12
34 | 0.302 | CC(C)=Cc1c(O)cc2oc(-c3ccccc3)cc(=O)c2c1O
35 | 0.282 | CC(C)Oc1cc2oc(-c3ccccc3)cc(=O)c2c(O)c1C(C)C
36 | 0.2 | C=CC(C)(C)c1c(O)cc(O)c2c(=O)cc(-c3ccccc3)oc12
37 | 0.2 | C=CC(C)(C)c1c(O)cc(O)c2c(=O)c(O)c(-c3ccc(OC)cc3)oc12
38 | 0.0676 | O=c1cc(-c2ccccc2)oc2cc(OCc3ccccc3)cc(O)c12
39 | 0.0363 | O=c1cc(-c2ccccc2)oc2c(Cc3ccccc3)c(O)c(Cc3ccccc3)c(O)c12
40 | 0.0151 | CC(C)=Cc1c(O)c(C=C(C)C)c2oc(-c3ccccc3)cc(=O)c2c1O
